# Assay results: patent US20240199651A1, “ANTIBACTERIAL COMPOUNDS” (JANSSEN SCIENCES IRELAND UNLIMITED COMPANY, priority 2021, published 2024)
# Where two headings read alike, the source gives them in different places.
# Tests used:
# [1] = system: Mycobacterium tuberculosis strain EH4.0 expressing green-fluorescent protein (GFP); assay: microbe, parasite or virus in culture; type: cell-based; settings: Mycobacterium tuberculosis; Test 1 (and/or Test 2); M. tuberculosis
# [2] = LM CLint (microsomal stability), human; type: in vitro ADME; settings: liver microsomes, read-out: CLint Microsomes, Human (h)
# Excerpt: (§1) The compounds of the invention/examples may have advantages associated with in vitro potency, kill kinetics (i.e. bactericidal effect) in vitro, PK properties, food effect, safety/toxicity (including liver toxicity, coagulation, 5-LO oxygenase), metabolic stability, Ames II negativity, MNT negativity, aqueous based solubility (and ability to formulate) and/or cardiovascular effect e.g. on animals (e.g. anesthetized guinea pig). Data that is generated/calculated may be obtained using standard methods/assays, for instance that are available in the literature or which may be performed by a supplier (e.g. Microsomal Stability Assay—Cyprotex, Mitochondrial toxicity (Glu/Gal) assay—Cyprotex, as well as literature CYP cocktail inhibition assays). GSH can be measured (reactive metabolites, glucuronidation) to observe if a dihydrodiol is observed by LCMS (fragmentation ions), which would correspond to a dihydroxylation on the core heterocycle.
# (§2) CLint Microsomes (μL/Min/Mg) in Dog (d), Human (h), Mouse (m) and Rat (r) (all at 1 μm)
# [3] = LM CLint (microsomal stability), mouse; type: in vitro ADME; settings: microsomes
# Excerpt: as §1, §2
# in vitro = in vitro ADME; settings: human, plasma
# Excerpt: PPB % Free (Human at 1 μm)
# [4] = Mitochondrial toxicity (Glu/Gal) assay; type: cell-based; set-up: Glu/Gal: Glu / Glu/Gal: Gal: unit not given here; settings: for Glu/Gal: Glu: first value (Glu); for Glu/Gal: Gal: second value (Gal)
# [5] = LM CLint (microsomal stability), rat; type: in vitro ADME
# Excerpt: as §1, §2
# [6] = LM CLint (microsomal stability), dog; type: in vitro ADME
# Excerpt: as §1, §2
# AMES II = type: cell-based; settings: score
# Excerpt: as §1
# [7] = Chemical stability testing (LCMS); type: physicochemical; settings: for chemical stability, purity by LCMS: 0.065 mg/mL; for chemical stability, % by LCMS: 30 µM
# Description: • Add 3 μl of a 10 mM DMSO stock solution to 1 ml of the following solvents in a 1.5 ml HPLC vial. • DMSO (reference solution) • H2O/Acetonitril 1/1 (assay solution) • 0.1N HCl/Acetonitril 1/1 (assay solution) • Mix well, […] LCMS • Compare the chromatograms of the two assay solutions with the reference solution and report the additional peaks as degradation peaks
# MDCK = MDCK permeability (AB+inh, BA/AB); settings: with inhibitor
# M. tuberculosis H37Rv = M. tuberculosis H37Rv inside macrophages; cited from earlier work
# [8] = 1 μm, read-out: CLint Microsomes, Mouse (m)
SMILES,microsomal CLint at 1 µM [2] [µL/min/mg],"microsomal CLint at 1 µM [3, 8] [µL/min/mg]",fraction unbound at 1 µM (in vitro),"IC50 ([4]; read-out: IC50, gal) [µM]","IC50 ([4]; read-out: IC50, glu) [µM]",microsomal CLint at 1 µM [3] [µL/min/mg],AMES II (AMES II),Glu/Gal: Glu [4],Glu/Gal: Gal [4],"chemical stability, % by LCMS ([7]; 72 h) [%]","chemical stability, % by LCMS ([7]; 72 h, pH 1.6) [%]",MDCK AB+inh (MDCK),"chemical stability, % by LCMS ([7]; 48 h) [%]","chemical stability, % by LCMS ([7]; 48 h, pH 1.6) [%]",also measured
CCc1nc2ccc(Cl)cn2c1C(=O)NCc1ccc(-c2nc3n(n2)CCN(S(=O)(=O)C(F)(F)F)C3)cc1 [Compound 1],30.3,49.2,0.00047,> 200,> 200,–,–,–,–,–,–,–,–,–,IC50 [1]: 7.76 nM
CCc1nc2ncc(Cl)cn2c1C(=O)NCc1ccc(-c2nc3n(n2)CCN(S(=O)(=O)C(F)(F)F)C3)cc1 [Compound 2],–,–,–,> 100,> 100,< 7.7,1,> 100,> 100,100,90.52,32.5,–,–,"CLint Microsomes, Rat (r) ([5]; 1 μm): < 7.7 μL/Min/Mg; microsomal CLint at 1 µM ([5]; microsomes): < 7.7 µL/min/mg; CLint Microsomes, Dog (d) ([6]; 1 μm): < 7.7 μL/Min/Mg; microsomal CLint at 1 µM ([6]; microsomes): < 7.7 µL/min/mg; chemical stability, purity by LCMS ([7]; 0 h): 99.56%; chemical stability, purity by LCMS ([7]; 0.25 h): 99.38%; chemical stability, purity by LCMS ([7]; 0.5 h): 99.21%; chemical stability, purity by LCMS ([7]; 1 h): 98.89%; chemical stability, purity by LCMS ([7]; 2 h): 98.28%; chemical stability, purity by LCMS ([7]; 4 h): 97.1%"
CCc1nc2ncc(C)cn2c1C(=O)NCc1ccc(-c2nc3n(n2)CCN(S(=O)(=O)C(F)(F)F)C3)c(F)c1 [Compound 7],–,–,–,> 200,> 200,< 7.7,–,> 200,> 200,100,100,21.4,–,–,–
Cc1cnc2nc(C3CC3)c(C(=O)NCc3ccc(-c4nc5n(n4)CCN(S(=O)(=O)C(F)(F)F)C5)cc3)n2c1 [Compound 42],47.1,20.4,0.029,> 25,> 25,–,–,–,–,–,–,–,100,100,–
CCc1nc2ncc(C)cn2c1C(=O)NCc1ccc(-c2cc3n(n2)CCN(S(=O)(=O)C(F)(F)F)C3)c(F)c1 [Compound 82],–,–,–,> 25,> 25,–,1,> 25,> 25,–,–,16.2,100,100,–
"CCc1nc2ccc(Cl)cn2c1C(=O)NCc1ccc(N2CCC(c3ccc(OC(F)(F)F)cc3)CC2)cc1 [Compound Q203, Q203]",–,–,–,–,–,–,–,–,–,–,–,–,–,–,MIC50 (M. tuberculosis H37Rv): 0.28 nM
